Measurements: ChEMBL document CHEMBL3867467, “Discovery of indazole ethers as novel, potent, non-steroidal glucocorticoid receptor modulators” (Bioorg Med Chem Lett, 2016)

Legend:
in vivo [1] = conditions: Wistar, rat, iv, 1 umol/kg
Description: Clearance in Wistar rat at 1 umol/kg, iv through bolus administration by LC/MS/MS analysis

in vivo [2] = conditions: Wistar, rat, iv, 1 umol/kg; remark: listed apart in the source
Description: Volume of distribution at steady state in Wistar rat at 1 umol/kg, iv through bolus administration by LC/MS/MS analysis

in vivo [3] = conditions: Wistar, rat, po, 10 umol/kg
in vivo [4] = conditions: Wistar, rat, po, 10 umol/kg; remark: listed apart in the source
in vivo [5] = conditions: Lewis, rat, po
Description: AUC in Lewis rat model of SCW-induced joint inflammation at anti-inflammatory ED50 administered via oral gavage once daily for 8 days measured 24 hrs post last dose on day 8 by LC/MS/MS analysis

in vitro [6] = conditions: human, plasma
Description: Fraction unbound in human plasma at 10 uM

in vitro [7] = conditions: rat, plasma
Description: Fraction unbound in rat plasma at 10 uM

[8] = Intrinsic clearance in rat hepatocytes assessed per million cells; format: ADME, cell-based, Hepatocyte; conditions: read-out: CLH
in vivo [9] = conditions: Wistar, rat, iv, 1 umol/kg; remark: listed apart in the source

COc1ccc([C@@H](Oc2ccc3c(cnn3-c3ccc(F)cc3)c2)[C@H](C)NC(=O)C2CC2)cn1
clearance (in vivo [1]): 28 mL/min/kg | Vd (in vivo [2]): 15 L/kg | AUC(0-inf) (in vivo [3]): 5.9 µM·h | bioavailability (in vivo [4]): 66% | AUC (in vivo [5]): 0.035 µM·h | fraction unbound at 10 µM (in vitro [6]): 0.0015 | fraction unbound at 10 µM (in vitro [7]): 0.0063

C[C@]12C=CC(=O)C=C1CC[C@@H]1[C@@H]2[C@@H](O)C[C@@]2(C)[C@H]1CC[C@]2(O)C(=O)CO [PREDNISOLONE]
hepatocyte CLint [8]: 27 µL/min/1e6 cells | clearance (in vivo [1]): 54 mL/min/kg | Vd (in vivo [2]): 0.63 L/kg | half-life (in vivo [9]): 0.27 h | AUC(0-inf) (in vivo [3]): 0.35 µM·h | AUC (in vivo [5]): 0.59 µM·h | fraction unbound at 10 µM (in vitro [6]): > 0.41 | fraction unbound at 10 µM (in vitro [7]): 0.31

C[C@H](NC(=O)C(F)(F)F)[C@H](Oc1ccc2c(cnn2-c2ccc(F)cc2)c1)c1ccccc1
clearance (in vivo [1]): 19 mL/min/kg | Vd (in vivo [2]): 14 L/kg | half-life (in vivo [9]): 11 h | AUC(0-inf) (in vivo [3]): 7.1 µM·h | bioavailability (in vivo [4]): 53% | AUC (in vivo [5]): 0.08 µM·h | fraction unbound at 10 µM (in vitro [6]): 0.0001 | fraction unbound at 10 µM (in vitro [7]): 0.00011
